ChEMBL document CHEMBL5537182, “Small Molecule Benzothiophene with In Vivo Efficacy in a Mouse Model of Drug-Resistant Enterococcus faecium Infection” (J Med Chem, 2024)
Converted amounts (≈) assume the structure as drawn. The source made the active and inactive calls. No cut-off for these calls is given here.

How the values were obtained:
[1] = tested on: Enterococcus faecium; test: Anti-bacterial activity against drug-resistant Enterococcus faecium NCTC 7171 assessed as invisible pellets in media measured after overnight incubation; assay type: functional
[2] = tested on: Enterococcus faecium; test: Anti-bacterial activity against vancomycin-resistant Enterococcus faecium EN 2966 assessed as invisible pellets in media measured after overnight incubation; assay type: functional
[3] = Cytotoxicity against African green monkey Vero cells assessed as cell viability incubated for 48 hrs by MTT assay; assay type: toxicity, cell-based; settings: chlorocebus sabaeus
[4] = Metabolic stability in mouse liver microsomes assessed as half life by LC-MS/MS analysis; assay type: ADME, Microsome
[5] = Kinetic solubility of the compound in aqueous buffer at pH 7.4 measured after 4 hrs by LC-MS/MS analysis; assay type: physicochemical; settings: read-out: Kinetic_solubility
[6] = AUC (0 to 5 hrs) in CD-1 mouse at 25 mg/kg, po by LC-MS/MS analysis; assay type: ADME, organism-based; settings: in vivo; for AUC(0-t): CD-1, mouse
[7] = tested on: Enterococcus faecium; test: In vivo anti-bacterial activity against vancomycin-resistant Enterococcus faecium EN 2966 infected immunocompetent mouse model of acute peritonitis-sepsis assessed as protection at 100 mg/kg, sc measured upto 3 days; assay type: functional, organism-based; settings: time <= 3.0 day
[8] = tested on: Enterococcus faecium; test: In vivo anti-bacterial activity against vancomycin-resistant Enterococcus faecium EN 2966 infected immunocompetent mouse model of acute peritonitis-sepsis assessed as protection at 150 mg/kg, po measured upto 3 days; assay type: functional, organism-based; settings: time <= 3.0 day
[9] = Plasma protein binding in mouse at 5 uM measured after 5 hrs by LC-MS/MS analysis; assay type: ADME, cell-free; settings: read-out: PPB
[10] = target: Cytochrome P450 2D6 (Homo sapiens, UniProt P10635); test: Inhibition of CYP2D6 in human liver microsomes using dextromethorphan as substrate; assay type: ADME, Microsome
[11] = Plasma stability in mouse plasma assessed as remaining at 5 uM measured after 5 hrs by LC-MS/MS analysis; assay type: ADME, cell-free
[12] = Toxicity in CD-1 mouse assessed as tolerability at 300 mg/kg, po; assay type: organism-based; settings: in vivo
[13] = Plasma stability in human plasma assessed as remaining at 5 uM measured after 5 hrs by LC-MS/MS analysis; assay type: ADME, cell-free
[14] = Metabolic stability in human liver microsomes assessed as half life by LC-MS/MS analysis; assay type: ADME, Microsome
[15] = target: T1, Cytochrome P450 1A2 (Homo sapiens, UniProt P05177); test: Inhibition of CYP1A2 in human liver microsomes using phenacetin as substrate; assay type: ADME, Microsome
T1 sequence (P05177 whole entry): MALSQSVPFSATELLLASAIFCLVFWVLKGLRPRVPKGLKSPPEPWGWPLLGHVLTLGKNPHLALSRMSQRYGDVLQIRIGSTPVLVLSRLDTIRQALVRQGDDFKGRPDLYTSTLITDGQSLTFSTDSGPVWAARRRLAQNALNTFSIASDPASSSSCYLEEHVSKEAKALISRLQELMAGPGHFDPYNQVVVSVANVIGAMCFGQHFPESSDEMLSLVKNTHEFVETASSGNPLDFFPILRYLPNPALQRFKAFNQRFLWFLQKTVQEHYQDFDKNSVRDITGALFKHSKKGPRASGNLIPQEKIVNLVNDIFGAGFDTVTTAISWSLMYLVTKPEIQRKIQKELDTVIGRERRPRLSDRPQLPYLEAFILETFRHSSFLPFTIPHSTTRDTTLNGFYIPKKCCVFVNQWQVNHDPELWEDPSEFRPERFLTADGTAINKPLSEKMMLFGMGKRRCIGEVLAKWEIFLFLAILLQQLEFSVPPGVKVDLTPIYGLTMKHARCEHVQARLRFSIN

[16] = target: Cytochrome P450 2C19 (Homo sapiens, UniProt P33261); test: Inhibition of CYP2C19 in human liver microsomes using omeprazole as substrate; assay type: ADME, Microsome
[17] = target: Cytochrome P450 2C9 (Homo sapiens, UniProt P11712); test: Inhibition of CYP2C9 in human liver microsomes using diclofenac as substrate; assay type: ADME, Microsome
[18] = tested on: Enterococcus faecium; test: Release of NO in drug-resistant Enterococcus faecium NCTC 7171 assessed as NO generation at 100 uM measured upto 2 hrs by Griess assay; assay type: functional, organism-based
[19] = Plasma protein binding in human at 5 uM measured after 5 hrs by LC-MS/MS analysis; assay type: ADME, cell-free; settings: read-out: PPB (converted)
[20] = target: Cytochrome P450 3A4 (Homo sapiens, UniProt P08684); test: Inhibition of CYP3A4 in human liver microsomes using midazolam as substrate; assay type: ADME, Microsome
[21] = Oral bioavailability in CD-1 mouse at 25 mg/kg by LC-MS/MS analysis; assay type: ADME, organism-based; settings: in vivo
[22] = tested on: Staphylococcus aureus; test: Anti-bacterial activity against Staphylococcus aureus ATCC 43300 assessed as invisible pellets in media measured after overnight incubation; assay type: functional
[23] = tested on: Klebsiella pneumoniae; test: Anti-bacterial activity against Klebsiella pneumonia BAA 2146 assessed as invisible pellets in media measured after overnight incubation; assay type: functional
[24] = tested on: Acinetobacter baumannii; test: Anti-bacterial activity against Acinetobacter baumannii ATCC 19606 assessed as invisible pellets in media measured after overnight incubation; assay type: functional
[25] = tested on: Pseudomonas aeruginosa; test: Anti-bacterial activity against Pseudomonas aeruginosa HER 1018 assessed as invisible pellets in media measured after overnight incubation; assay type: functional
[26] = tested on: Enterococcus faecium; test: Bactericidal activity against drug-resistant Enterococcus faecium NCTC 7171 assessed as invisible pellets in media measured after 2 days incubation; assay type: functional; settings: NCTC 7171, 48 h, time 2 day

Cytochrome P450 2C19, sequence (P33261 whole entry): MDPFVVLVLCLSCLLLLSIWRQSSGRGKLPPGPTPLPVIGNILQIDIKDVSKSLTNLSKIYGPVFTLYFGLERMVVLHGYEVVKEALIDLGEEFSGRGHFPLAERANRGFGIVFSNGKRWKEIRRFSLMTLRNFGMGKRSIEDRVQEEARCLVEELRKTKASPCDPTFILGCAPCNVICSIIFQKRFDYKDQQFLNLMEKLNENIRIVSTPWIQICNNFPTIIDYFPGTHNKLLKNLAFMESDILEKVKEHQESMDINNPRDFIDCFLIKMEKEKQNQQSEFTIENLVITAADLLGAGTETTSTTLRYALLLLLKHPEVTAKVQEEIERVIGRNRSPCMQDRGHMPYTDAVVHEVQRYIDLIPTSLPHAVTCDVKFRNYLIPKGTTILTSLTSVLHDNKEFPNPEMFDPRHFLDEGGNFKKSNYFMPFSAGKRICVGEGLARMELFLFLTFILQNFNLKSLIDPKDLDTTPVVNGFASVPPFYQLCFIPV
Cytochrome P450 3A4, sequence (P08684 whole entry): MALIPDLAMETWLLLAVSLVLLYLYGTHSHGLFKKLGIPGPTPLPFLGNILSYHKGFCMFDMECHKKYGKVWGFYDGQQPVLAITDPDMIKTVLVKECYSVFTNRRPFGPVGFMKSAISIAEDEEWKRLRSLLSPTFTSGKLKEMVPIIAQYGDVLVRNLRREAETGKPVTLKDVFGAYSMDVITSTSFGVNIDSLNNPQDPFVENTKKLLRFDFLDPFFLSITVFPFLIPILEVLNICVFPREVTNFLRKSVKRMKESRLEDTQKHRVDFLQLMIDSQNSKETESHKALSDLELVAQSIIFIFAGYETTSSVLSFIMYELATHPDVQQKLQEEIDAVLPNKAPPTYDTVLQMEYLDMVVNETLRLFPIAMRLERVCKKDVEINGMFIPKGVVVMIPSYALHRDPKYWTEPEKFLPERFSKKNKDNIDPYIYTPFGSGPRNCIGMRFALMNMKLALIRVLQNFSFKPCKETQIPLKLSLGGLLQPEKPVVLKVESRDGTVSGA
Cytochrome P450 2D6, sequence (P10635 whole entry): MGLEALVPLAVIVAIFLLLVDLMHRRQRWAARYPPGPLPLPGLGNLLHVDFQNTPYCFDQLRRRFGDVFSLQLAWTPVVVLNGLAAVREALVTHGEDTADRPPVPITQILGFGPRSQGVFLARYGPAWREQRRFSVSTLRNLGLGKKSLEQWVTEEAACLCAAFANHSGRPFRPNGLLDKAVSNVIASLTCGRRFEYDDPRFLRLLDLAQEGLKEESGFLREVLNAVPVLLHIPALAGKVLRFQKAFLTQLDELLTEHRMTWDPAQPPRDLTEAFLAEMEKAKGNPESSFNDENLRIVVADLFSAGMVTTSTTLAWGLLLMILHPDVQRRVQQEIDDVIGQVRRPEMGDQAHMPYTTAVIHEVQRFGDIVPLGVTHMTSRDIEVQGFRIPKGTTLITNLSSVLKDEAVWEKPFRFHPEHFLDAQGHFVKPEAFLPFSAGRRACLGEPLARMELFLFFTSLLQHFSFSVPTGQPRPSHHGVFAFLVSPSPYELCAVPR
Cytochrome P450 2C9, sequence (P11712 whole entry): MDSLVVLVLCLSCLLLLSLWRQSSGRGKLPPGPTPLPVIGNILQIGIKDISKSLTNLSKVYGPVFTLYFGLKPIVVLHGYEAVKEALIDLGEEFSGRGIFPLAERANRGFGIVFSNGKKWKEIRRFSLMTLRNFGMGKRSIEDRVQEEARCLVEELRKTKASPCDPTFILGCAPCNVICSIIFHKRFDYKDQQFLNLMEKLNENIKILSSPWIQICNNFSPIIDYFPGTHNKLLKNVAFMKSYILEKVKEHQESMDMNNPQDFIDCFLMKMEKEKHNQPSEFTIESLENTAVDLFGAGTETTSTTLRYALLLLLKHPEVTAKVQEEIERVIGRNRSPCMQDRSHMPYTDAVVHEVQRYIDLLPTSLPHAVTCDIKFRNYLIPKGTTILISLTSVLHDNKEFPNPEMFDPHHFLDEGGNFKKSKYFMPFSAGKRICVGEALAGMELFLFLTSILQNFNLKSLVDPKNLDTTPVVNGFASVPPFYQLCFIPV

SMILES	MIC [1] [µM]	CC50 [3] [µM]	other results
CC(=O)NC[C@H]1CN(c2ccc(N3CCOCC3)c(F)c2)C(=O)O1 [LINEZOLID]	4.6 (≈ 1.55 µg/mL)	–	MIC [2]: 4.7 µM (≈ 1.59 µg/mL)
O=C(NNC(=O)c1sc2cc(Cl)ccc2c1Cl)c1ccc(Cl)s1	> 123	123	–
O=C(NNC(=O)c1ccc([N+](=O)[O-])o1)c1cc2ccccc2[nH]1	> 100	> 160	–
O=C(NNC(=O)c1cc2ccccc2o1)c1ccc([N+](=O)[O-])o1	> 100	39	–
O=C(NNC(=O)c1cc2c(Cl)cccc2s1)c1ccc([N+](=O)[O-])o1	34 (≈ 12.4 µg/mL)	136	–
O=C(NNC(=O)c1cc2cc(Cl)cc(Cl)c2s1)c1ccc([N+](=O)[O-])o1	0.75 (≈ 0.3 µg/mL)	124	t1/2 [4]: 13.3 min; solubility kinetic at 4 h [5]: 0.55 µM (≈ 0.22 µg/mL); AUC(0-t) [6]: 111000 ng·h/mL
CC(C)(NC(=O)c1ccc([N+](=O)[O-])o1)c1cc2ccccc2s1	> 150	38	–
O=C(c1ccc([N+](=O)[O-])o1)N1CCN(C(=O)c2cc3ccccc3s2)CC1	> 130	16	–
O=C(NNC(=O)c1sc2ccc(Cl)cc2c1Cl)c1ccc([N+](=O)[O-])o1	> 124	> 124	–
O=C(NNC(=O)c1sc2cc(Cl)ccc2c1Cl)c1ccc([N+](=O)[O-])s1	> 120	> 120	–
CN[C@H](CC(C)C)C(=O)N[C@H]1C(=O)N[C@@H](CC(N)=O)C(=O)N[C@H]2C(=O)N[C@H]3C(=O)N[C@H](C(=O)N[C@H](C(=O)O)c4cc(O)cc(O)c4-c4cc3ccc4O)[C@H](O)c3ccc(c(Cl)c3)Oc3cc2cc(c3O[C@@H]2O[C@H](CO)[C@@H](O)[C@H](O)[C@H]2O[C@H]2C[C@](C)(N)[C@H](O)[C@H](C)O2)Oc2ccc(cc2Cl)[C@H]1O [VANCOMYCIN]	1.1 (≈ 1.59 µg/mL)	–	Activity [7]: Active; MIC [2]: ≥ 30 µM
C[C@@H](O)[C@H]1C(=O)N2C(C(=O)O)=C(S[C@@H]3CN[C@H](C(=O)N(C)C)C3)[C@H](C)[C@H]12 [MEROPENEM]	19 (≈ 7.29 µg/mL)	–	–
O=C(NNC(=O)c1sc2cc(F)ccc2c1Cl)c1ccc([N+](=O)[O-])o1	> 130	> 130	–
O=C(NNC(=O)c1cc2c(Cl)cc(Cl)cc2s1)c1ccc([N+](=O)[O-])o1	62 (≈ 24.8 µg/mL)	> 124	–
O=[N+]([O-])c1ccc(-c2nnc(-c3cc4ccccc4s3)o2)o1	> 160	160	–
O=C(NNC(=O)c1csc2ccccc12)c1ccc([N+](=O)[O-])o1	15 (≈ 4.97 µg/mL)	75	–
O=C(NCCNC(=O)c1cc2ccccc2s1)c1ccc([N+](=O)[O-])o1	> 140	139	–

SMILES	MIC [1] [µM]	CC50 [3] [µM]	other results
O=C(NNC(=O)c1sc2cccc(Cl)c2c1Cl)c1ccc([N+](=O)[O-])o1	7.8 (≈ 3.12 µg/mL)	> 124	–
O=C(NNC(=O)c1sc2cc(C(F)(F)F)ccc2c1Cl)c1ccc([N+](=O)[O-])o1	3.6 (≈ 1.56 µg/mL)	110	–
CCCCCCCCCC(=O)N[C@@H](Cc1c[nH]c2ccccc12)C(=O)N[C@H](CC(N)=O)C(=O)N[C@@H](CC(=O)O)C(=O)N[C@@H]1C(=O)NCC(=O)N[C@@H](CCCN)C(=O)N[C@@H](CC(=O)O)C(=O)N[C@H](C)C(=O)N[C@@H](CC(=O)O)C(=O)NCC(=O)N[C@H](CO)C(=O)N[C@@H]([C@H](C)CC(=O)O)C(=O)N[C@@H](CC(=O)c2ccccc2N)C(=O)O[C@@H]1C	10 (≈ 16.2 µg/mL)	–	–
O=C(NNC(=O)c1sc2cc(Cl)ccc2c1Cl)c1ccc([N+](=O)[O-])o1	1.9 (≈ 0.76 µg/mL)	> 120	Activity [8]: Active; fraction unbound at 5 h, 5 µM [9]: 0.0001; IC50 [10]: > 50 µM; Stability [11]: 89.2%; t1/2 [4]: 16.6 min; solubility kinetic at 4 h [5]: 0.35 µM (≈ 0.14 µg/mL); Activity [12]: Non-Toxic; Stability [13]: 76.6%; t1/2 [14]: 85.6 min; IC50 [15]: > 50 µM; IC50 [16]: > 50 µM; IC50 [17]: > 50 µM; MIC [2]: 1.9 µM (≈ 0.76 µg/mL); Activity [18]: inactive; fraction unbound at 5 h, 5 µM [19]: 0.007; AUC ([6]; mouse, po, 25 mg/kg): 75175 ng·h/mL; IC50 [20]: > 50 µM; F [21]: 47%
O=C(NNC(=O)c1nc2ccccc2s1)c1ccc([N+](=O)[O-])o1	30 (≈ 9.97 µg/mL)	150	–
O=C(NNC(=O)c1cc2ccc(Cl)cc2s1)c1ccc([N+](=O)[O-])o1	> 136	> 136	–
O=C(N/N=C/c1cc2ccccc2s1)c1ccc([N+](=O)[O-])o1	> 158	39	–
O=C(NNC(=O)c1cc2c(s1)CCCC2)c1ccc([N+](=O)[O-])o1	37 (≈ 12.4 µg/mL)	37	–
O=C(NNC(=O)c1sc2ccccc2c1Cl)c1ccc([N+](=O)[O-])o1	17 (≈ 6.22 µg/mL)	68	–
O=C(NNC(=O)c1sc2c(Cl)cccc2c1Cl)c1ccc([N+](=O)[O-])o1	62 (≈ 24.8 µg/mL)	> 120	–
O=C(NNC(=O)c1sc2cc(Cl)ccc2c1Cl)c1ccc(Cl)o1	> 128	128	–
O=C(NNC(=O)c1cc2ccccc2s1)c1ccc([N+](=O)[O-])o1	> 174	–	MIC [22]: > 150 µM; t1/2 [4]: 3.3 min; solubility kinetic at 4 h [5]: 103 µM (≈ 34.1 µg/mL); MIC [23]: > 150 µM; MIC [24]: > 150 µM; AUC(0-t) [6]: 1280 ng·h/mL; MIC [25]: > 150 µM
O=C(NNC(=O)c1cc2cc(Cl)ccc2s1)c1ccc([N+](=O)[O-])o1	> 137	> 137	–
NC[C@H]1O[C@H](O[C@H]2[C@H](O)[C@@H](O[C@H]3O[C@H](CO)[C@@H](O)[C@H](N)[C@H]3O)[C@H](N)C[C@@H]2N)[C@H](O)[C@@H](O)[C@@H]1O [KANAMYCIN]	> 24	–	–
O=C(NNC(=O)c1cc2cccnc2s1)c1ccc([N+](=O)[O-])o1	> 100	150	–
O=C(NNC(=O)c1cc2cccc(Cl)c2s1)c1ccc([N+](=O)[O-])o1	4.2 (≈ 1.54 µg/mL)	68	–
O=C(NNC(=O)c1cc2cc(C(F)(F)F)cc(Cl)c2s1)c1ccc([N+](=O)[O-])o1	1.8 (≈ 0.781 µg/mL)	> 110	MIC [22]: 16 µM (≈ 6.94 µg/mL); t1/2 [4]: 57.8 min; solubility kinetic at 4 h [5]: 0.06 µM (≈ 0.026 µg/mL); MIC [23]: > 120 µM; MIC [24]: > 120 µM; MBC [26]: 7.7 µM (≈ 3.34 µg/mL); AUC(0-t) [6]: 43800 ng·h/mL; MIC [25]: > 120 µM
